Results on 19 molecules are retold here after patent US20240327382A1 (ALMAC DISCOVERY LIMITED, priority 2021, published 2024).

Counter-ions that a name gives are not always drawn.

The assay deals with T1, Full-length USP19 (Homo sapiens, UniProt O94966).
T1 construct: Full-length USP19 was purchased from Boston Biochem (E-576); purchased Boston Biochem E-576
T1 sequence (O94966 1-1318): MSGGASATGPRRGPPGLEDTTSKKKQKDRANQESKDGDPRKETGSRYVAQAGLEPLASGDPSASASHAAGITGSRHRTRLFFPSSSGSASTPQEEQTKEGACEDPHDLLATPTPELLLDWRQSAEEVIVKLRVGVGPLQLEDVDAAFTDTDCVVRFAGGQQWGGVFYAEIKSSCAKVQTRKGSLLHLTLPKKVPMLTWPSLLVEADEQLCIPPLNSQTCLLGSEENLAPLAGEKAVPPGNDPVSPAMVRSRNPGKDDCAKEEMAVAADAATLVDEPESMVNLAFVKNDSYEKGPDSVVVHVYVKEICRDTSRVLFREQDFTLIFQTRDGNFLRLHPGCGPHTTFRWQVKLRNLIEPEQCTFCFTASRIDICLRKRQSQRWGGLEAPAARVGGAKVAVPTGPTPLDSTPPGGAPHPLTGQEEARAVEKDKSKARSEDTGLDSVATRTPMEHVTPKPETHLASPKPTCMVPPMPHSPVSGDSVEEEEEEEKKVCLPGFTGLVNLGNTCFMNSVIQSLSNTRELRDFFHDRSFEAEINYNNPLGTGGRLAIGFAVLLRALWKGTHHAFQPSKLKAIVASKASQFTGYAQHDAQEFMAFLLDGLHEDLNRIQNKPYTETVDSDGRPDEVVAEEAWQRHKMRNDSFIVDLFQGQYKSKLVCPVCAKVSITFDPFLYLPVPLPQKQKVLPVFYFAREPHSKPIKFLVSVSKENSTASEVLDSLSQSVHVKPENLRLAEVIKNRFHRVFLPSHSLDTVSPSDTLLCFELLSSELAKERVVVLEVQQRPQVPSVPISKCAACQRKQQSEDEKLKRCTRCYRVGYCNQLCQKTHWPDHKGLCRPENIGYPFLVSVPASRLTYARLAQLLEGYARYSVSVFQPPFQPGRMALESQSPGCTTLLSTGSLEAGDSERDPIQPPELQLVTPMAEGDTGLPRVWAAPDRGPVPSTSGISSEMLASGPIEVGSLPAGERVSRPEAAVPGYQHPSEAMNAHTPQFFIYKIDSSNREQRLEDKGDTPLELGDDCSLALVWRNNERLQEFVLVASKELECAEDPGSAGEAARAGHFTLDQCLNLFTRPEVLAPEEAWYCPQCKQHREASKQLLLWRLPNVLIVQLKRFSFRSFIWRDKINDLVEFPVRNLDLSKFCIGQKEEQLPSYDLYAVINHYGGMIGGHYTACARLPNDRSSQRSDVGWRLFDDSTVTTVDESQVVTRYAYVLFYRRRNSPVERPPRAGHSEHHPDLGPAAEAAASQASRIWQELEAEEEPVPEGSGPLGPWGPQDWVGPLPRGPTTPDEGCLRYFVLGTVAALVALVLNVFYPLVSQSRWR
Kind of assay: USP19 fluorescence polarisation (FP) assay, Ubiquitin-Lys-TAMRA substrate. It counts as biochemical. Particulars: average of at least two duplicate experiments. An outline of the steps: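 Full-length human USP19 (added at 2.5 nM) was preincubated 30 min at RT with inhibitor (serial dilutions 200 μM to 2 μM) in 50 mM HEPES pH 7.4, 150 mM NaCl, 5 mM DTT, 0.05% BSA, 0.05% CHAPS. Ubiquitin-Lys-TAMRA isopeptide substrate (added at 500 nM) started the reaction, and FP (Ex 530/Em 575 nm) was read every 15 min over 90 min. IC50 came from non-linear regression of signal normalised to no-compound control, averaged over at least two duplicate experiments.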
Background: Polarisation of emitted light reports the rotation of a fluorescent probe.
On to `CN[C@@H]1CCN(C(=O)N2CC[C@@H](Cn3cnc(-c4ccccc4OC)cc3=O)C3(CCCC3)C2)[C@H](c2ccccc2)C1` [Example 97, 6-(2-Methoxyphenyl)-3-(((R)-7-((2S,4R)-4-(methylamino)-2-phenylpiperidine-1-carbonyl)-7-azaspiro[4.5]decan-10-yl)methyl)pyrimidin-4(3H)-one], for which the IC50 is less than 10 nM.
With `Cc1cc(=O)n(CC2CCN(C(=O)N3CC[C@@H](N)C[C@H]3c3ccccc3)CC23CCCC3)cn1` (stereo partly drawn) [Example 32, 3-((7-((2S,4R)-4-Amino-2-phenylpiperidine-1-carbonyl)-7-azaspiro[4.5]decan-10-yl)methyl)-6-methylpyrimidin-4(3H)-one] the figure was 10 to 100 nM; with `CN[C@@H]1CCN(C(=O)N2CC[C@@H](Cn3cnc4ccccc4c3=O)C3(CCCC3)C2)[C@H](c2cc(F)ccc2F)C1` [Example 199, 3-(((R)-7-((2S,4R)-2-(2,5-Difluorophenyl)-4-(methylamino)piperidine-1-carbonyl)-7-azaspiro[4.5]decan-10-yl)methyl)quinazolin-4(3H)-one], less than 10 nM; with `O=C(O)CN[C@@H]1CCN(C(=O)N2CC[C@@H](Cn3cnc(-c4ccccc4)cc3=O)C3(CCCC3)C2)[C@H](c2ccccc2)C1` [Example 106, Sodium ((2S,4R)-1-((R)-10-((6-Oxo-4-phenylpyrimidin-1(6H)-yl)methyl)-7-azaspiro[4.5]decane-7-carbonyl)-2-phenylpiperidin-4-yl)glycinate], less than 10 nM.
Regarding `O=C(N1CC[C@@H](Cn2cnc(C(F)F)cc2=O)C2(CCCC2)C1)N1CC[C@@H](NC2CC(F)(F)C2)C[C@H]1c1cc(F)ccc1F` [Example 183, 3-(((R)-7-((2S,4R)-4-((3,3-Difluorocyclobutyl)amino)-2-(2,5-difluorophenyl)piperidine-1-carbonyl)-7-azaspiro[4.5]decan-10-yl)methyl)-6-(difluoromethyl)pyrimidin-4(3H)-one], the IC50 lay within 10 to 100 nM.
`COc1ccccc1-c1cc(=O)n(C[C@@H]2CCN(C(=O)N3CC[C@@H](N4CCOCC4)C[C@H]3c3ccccc3)CC23CCCC3)cn1` [Example 110, 6-(2-Methoxyphenyl)-3-(((R)-7-((2S,4R)-4-morpholino-2-phenylpiperidine-1-carbonyl)-7-azaspiro[4.5]decan-10-yl)methyl)pyrimidin-4(3H)-one]: the IC50 fell in the range of 10 to 100 nM.
As for `CN[C@@H]1CCN(C(=O)N2CC[C@@H](Cn3cnc(-c4ccccc4OC)cc3=O)C3(CCCC3)C2)[C@H](c2ccc(F)cc2)C1` [Example 104, 3-(((R)-7-((2S,4R)-2-(4-Fluorophenyl)-4-(methylamino)piperidine-1-carbonyl)-7-azaspiro[4.5]decan-10-yl)methyl)-6-(2-methoxyphenyl)pyrimidin-4(3H)-one], the figure is less than 10 nM.
As to `O=C(N1CC[C@@H](Cn2cnc3ccc(F)cc3c2=O)C2(CCCC2)C1)N1CC[C@@H](N2CCOCC2)C[C@H]1c1ccccc1` [Example 171, 6-Fluoro-3-(((R)-7-((2S,4R)-4-morpholino-2-phenylpiperidine-1-carbonyl)-7-azaspiro[4.5]decan-10-yl)methyl)quinazolin-4(3H)-one hydrochloride], the IC50 fell in the range of 100 to 1000 nM.
On to `CCN[C@@H]1CCN(C(=O)N2CC[C@@H](Cn3cnc4ccc(F)cc4c3=O)C3(CCCC3)C2)[C@H](c2cc(F)ccc2F)C1` [Example 162, 3-(((R)-7-((2S,4R)-2-(2,5-Difluorophenyl)-4-(ethylamino)piperidine-1-carbonyl)-7-azaspiro[4.5]decan-10-yl)methyl)-6-fluoroquinazolin-4(3H)-one], for which the IC50 is less than 10 nM.
`N[C@@H]1CC[C@@H](c2ccccc2)N(C(=O)N2CC[C@@H](Cn3cnc(-c4ccccc4)cc3=O)C3(CCCC3)C2)C1` (racemic) [Example 188, 3-(((R)-7-((2S,5R)-5-Amino-2-phenylpiperidine-1-carbonyl)-7-azaspiro[4.5]decan-10-yl)methyl)-6-phenylpyrimidin-4(3H)-one and 3-(((R)-7-((2R,5S)-5-amino-2-phenylpiperidine-1-carbonyl)-7-azaspiro[4.5]decan-10-yl)methyl)-6-phenylpyrimidin-4(3H)-one]: the IC50 was 10 to 100 nM.
As for `CC1(C)CN(C(=O)N2CCNC[C@H]2c2ccccc2)CCC1Cn1ccc(-c2ccccc2)cc1=O` (stereo partly drawn) [Example 20, 1-((3,3-Dimethyl-1-((R)-2-phenylpiperazine-1-carbonyl)piperidin-4-yl)methyl)-4-phenylpyridin-2(1H)-one], the figure is 10 to 100 nM; as for `O=C(N1CCC(Cn2ccc(-c3ccccc3)cc2=O)CC1)N1CCNC[C@H]1c1cc(F)ccc1F` [Example 22, (R)-1-((1-(2-(2,5-Difluorophenyl)piperazine-1-carbonyl)piperidin-4-yl)methyl)-4-phenylpyridin-2(1H)-one], 10 to 100 nM; as for `O=C(N1CC=C(Cn2cnc(-c3ccccc3)cc2=O)C2(CCCC2)C1)N1CCNC[C@H]1c1ccccc1` (single isomer, unassigned) [Example 2], 10 to 100 nM.
As for `N[C@@H]1CCN(C(=O)N2CCC(CN3Cc4nccn4CC3=O)C3(CCCC3)C2)[C@H](c2ccccc2)C1` (stereo partly drawn) [Example 42, 7-((7-((2S,4R)-4-Amino-2-phenylpiperidine-1-carbonyl)-7-azaspiro[4.5]decan-10-yl)methyl)-7,8-dihydroimidazo[1,2-a]pyrazin-6(5H)-one], the half-inhibitory concentration (IC50) was in the range of 10 to 100 nM.
With `Cn1ccc(N[C@@H]2CCN(C(=O)N3CC[C@@H](Cn4cnc(-c5ccccc5)cc4=O)C4(CCCC4)C3)[C@H](c3ccccc3)C2)n1` [Example 147, 3-(((R)-7-((2S,4R)-4-((1-Methyl-1H-pyrazol-3-yl)amino)-2-phenylpiperidine-1-carbonyl)-7-azaspiro[4.5]decan-10-yl)methyl)-6-phenylpyrimidin-4(3H)-one] the figure was 100 to 1000 nM; with `N[C@@H]1CCN(C(=O)N2CCC(F)(Cn3cnc(-c4ccccc4)cc3=O)C3(CCCC3)C2)[C@H](c2ccccc2)C1` (stereo partly drawn) [Example 57, 3-((7-((2S,4R)-4-Amino-2-phenylpiperidine-1-carbonyl)-10-fluoro-7-azaspiro[4.5]decan-10-yl)methyl)-6-phenylpyrimidin-4(3H)-one], less than 10 nM; with `O=C(N[C@@H]1CCN(C(=O)N2CC[C@@H](Cn3ccc(-c4ccccc4)cc3=O)C3(CCCC3)C2)[C@H](c2ccccc2)C1)C1CC1` [Example 96, N-((2S,4R)-1-((R)-10-((2-Oxo-4-phenylpyridin-1(2H)-yl)methyl)-7-azaspiro[4.5]decane-7-carbonyl)-2-phenylpiperidin-4-yl)cyclopropanecarboxamide], 10 to 100 nM.
As for `CN[C@@H]1CCN(C(=O)N2CC[C@@H](Cn3ccc(-c4ccccc4)cc3=O)C(C)(C)C2)[C@H](c2ccccc2)C1` [Example 72, 1-(((R)-3,3-Dimethyl-1-((2S,4R)-4-(methylamino)-2-phenylpiperidine-1-carbonyl)piperidin-4-yl)methyl)-4-phenylpyridin-2(1H)-one], the figure is less than 10 nM; as for `CO[C@@]1(Cn2ccc(-c3ccccc3)cc2=O)CCN(C(=O)N2CC[C@@H](N)C[C@H]2c2ccccc2)CC12CCCC2` [Example 73, 1-(((S)-7-((2S,4R)-4-Amino-2-phenylpiperidine-1-carbonyl)-10-methoxy-7-azaspiro[4.5]decan-10-yl)methyl)-4-phenylpyridin-2(1H)-one], less than 10 nM.

By IC50 is commonly meant the concentration that gives 50% inhibition.
